Assay results: US20260306463A1, “SIK INHIBITORS TO TREAT CHRONIC KIDNEY DISEASE” (The General Hospital Corporation, priority 2023, published 2026)
“Also recorded” adds a separate entry of the source. Where two headings read alike, the source gives them in different places.

Tests used:
SIK2/SIK3 = settings: reference to WO 2022/031928, Sato et al., Yoon et al., cited from earlier work
[1] = tested on: mice with adenine diet-induced chronic kidney disease; assay: 8 week adenine diet CKD study, SK-124 versus once daily PTH injections; assay type: in vivo, mouse (female CD1); settings: 8 weeks
Experimental: FIGS. 4A-4D. […] (A) Study design: Female CD1 mice (n=8/group) were treated with control or 0.2% adenine diet starting at […] of age along with vehicle, PTH (80 mcg/kg/d, IP injections) or SK-124 (40 mg/kg) treatment by oral gavage once daily. Mice were treated for 8 weeks. (B, C) After 8 weeks of treatment, the indicated serum analyte was measured. (D) Whole kidney RNA from the indicated groups was analyzed by RT-qPCR for the indicated fibrosis marker gene.
(§1) 7-week-old female CD1 mice were obtained from Charles River Laboratories (Wilmington, MA) and were fed on 0.2% adenine containing diet (TD.130900; 0.2% Adenine, 0.9% Phosphate, 0.5% Calcium; Envigo) or control diet (TD. 96348) for 6 or 8 weeks to induce chronic kidney disease (CKD). Mice were oral gavaged with 40 mg/kg SK-124, or intraperitonially injected with 80 μg/kg PTH, or treated with vehicle 5 days a week for the duration of the special diet.
(§2) For studies with Ubiquitin-Cre^ERt2; Sik2^ff; Sik3^ff mice (JAX #007001 for Ubiquitin-Cre^ERt2: RRID:MGL:5905012 for Sik2 foxed mice; and Sik3^tmla(EUCOMM)Hmgu mice (RRID:MGI:5085429) bred to PGK1 FLPo mice (JAX #011065) in order to generate Sik3 foxed mice), tamoxifen was injected (1 mg, IP, Q48 hours, 3 injections total) in all animals including Cre-negative control littermates housed in cages with Pure-o′Cel bedding at 5 weeks of age. Mice were then fed on 0.2% adenine diet from 6 weeks to 9 weeks of age. Mice were fasted for 6 hours and treated with SK-124 and PTH 4 hours and 2 hours before the sacrifice. Blood and spot urine samples were collected by cheek pouch bleeding and by pipetting urine collected on hydrophobic sand (Labsand; Braintree, MA). Kidneys were immediately snap-frozen in liquid nitrogen for TRIzol (Life Technologies)-Chloroform (Fischer Scientific) based RNA isolation or protein isolation, or fixed in 10% formalin at 4C for 24 hrs for histology. All serum and urine measurements were performed using commercial bioassay detection reagents listed in Table 1, following the manufacturers' instructions. Urine protein levels were measured by Bradford assay and normalized to urine creatinine.
cDNA was prepared using Primescript RT kit (Takara Inc), with 750 ng RNA per reaction. RT-qPCR was performed by using PerfeCa® SYBR® Green FAstMix® ROX (Quanta bio) in the StepOnePlus™ Real-time PCR System (Applied Biosystems). Hmbs was used as a control housekeeping gene for mouse samples, and B-Actin was used for organoids, relative expression was calculated (2^-deltaCT method) and compared to the mean of control group if necessary. Primers used for RT-qPCR are listed in Table 2 (mouse primers) and Table 3 (human primers).

[2] = tested on: mouse CKD kidneys and human kidney organoids; assay: overlap of injury-regulated genes rescued by SK-124 in mouse adenine diet and human cisplatin organoid studies; settings: Venn overlap, both CKD models
Experimental: FIGS. 13A-13E. Transcriptomic effects of SK-124 in cisplatin-induced human kidney organoid model. RNA-seq was performed on kidney organoid RNA samples (n=4/group) from FIG. 8. Volcano plot show gene regulated (>2-fold change, p(adj)<0.05) by cisplatin (versus vehicle, A) or within cisplatin-treated organoids by SK-124 (versus DMSO control, B). In Volcano plot, representative fibrosis/injury markers (Col8a1, Fni, Serpinel) and proximal tubule integrity (Lrp2 and Hnf4a) are shown. Scatterplot (C) and heatmap (D) showing integration of individual RNA-seq comparisons.
(§3) Isolated RNA samples from the mouse adenine diet study and human kidney organoid experiment were submitted to Novogene and bulk-RNA sequencing on NovaSeq X Plus Ilumina Novoseq Platform. Sequencing reads were mapped to the mouse reference genome (mm10/GRCm38) or human reference genome (GRCh38/hg38) using Salmon and differential gene expression analysis was performed using DESeq2.

[3] = tested on: whole kidney transcriptome; assay: bulk RNA-sequencing of whole kidney, adenine CKD mice; assay type: in vivo, mouse; settings: bulk RNA-seq
Experimental: FIGS. 6A-6F. The effects of SK-124 treatment at the transcriptomic level in adenine-induced mouse chronic kidney disease. RNA-seq was performed on whole kidney RNA samples (n=7/group) from FIG. 1. Volcano plot show gene regulated (>2-fold change, p(adj)<0.05) by CKD (versus control diet, A) or in CKD by SK-124 (versus vehicle control, B). In Volcano plot, representative fibrosis markers (Col3a1, Vim, Serpinel) and proximal tubule integrity (Lrp2. Atplai, and Hnf4a) are shown. Scatterplot (C) and heatmap (D) showing integration of individual RNA-seq comparisons. […] (E) Single cell RNA-sequencing was performed on dissociated kidneys from adenine diet fed mice treated with vehicle or SK-124 (n=4/group). […] (F) Relative cellularity of each annotated cluster is shown in pie chart format for adenine+vehicle (CKD-Veh) or adenine+SK-124 (CKD-SK-124) mice.
as §3

[4] = tested on: intact proximal tubular epithelial genes; assay: whole kidney RNA RT-qPCR of proximal tubule marker genes, adenine CKD mice; assay type: in vivo, mouse
Experimental: FIGS. 1A-1E. […] (A) Study design: Female CD1 mice (n=8/group) were treated with control or 0.2% adenine diet starting at 6 weeks of age along with vehicle or SK-124 (40 mg/kg) treatment by oral gavage once daily. Bottom: body weight of mice in the indicated treatment groups. […] (B, C) After 6 weeks of treatment, the indicated analytes were measured in fasting serum or urine. […] (D) H+E-stained kidney sections were assessed on a blinded basis by a pathologist for tubulointerstitial damage. (E) Whole kidney RNA from the indicated groups was analyzed by RT-qPCR for the indicated proximal tubule marker gene. For all panels in all figures, 1-way ANOVA was performed with Dunnett's posthoc analysis to analyze differences between treatment groups, p values less than 0.05 are shown in graph.
as §1, §2
cDNA was prepared using Primescript RT kit (Takara Inc), with 750 ng RNA per reaction. […] Hmbs was used as a control housekeeping gene for mouse samples, and B-Actin was used for organoids, relative expression was calculated (2^-deltaCT method) and compared to the mean of control group if necessary. […]

[5] = adenine vs control diet, or SK-124 vs vehicle in CKD mice
[6] = whole kidney RNA, RT-qPCR, 6 weeks adenine diet

CCc1nnc(-c2c(OC)cc(-c3cnc4cc(-c5cnn(C)c5)ccn34)cc2OC)o1 [SK-124, 2-[2,6-Dimethoxy-4-[7-(1-methylpyrazol-4-yl)imidazo[1,2-a]pyridin-3-yl]phenyl]-5-ethyl-1,3,4-oxadiazole]
SIK isoform selectivity (SIK2/SIK3): specific SIK2/SIK3 inhibitor; also recorded: SIK2/SIK3-selective inhibitor
SIK isoform selectivity (SIK2/SIK3; listed as SIK-124): selective SIK2/SIK3 inhibitor
CKD-MBD markers ([1]; SK-124 40 mg/kg oral gavage once daily, or PTH 80 mcg/kg/d IP): reduced CKD-MBD markers
kidney function ([1]; SK-124 40 mg/kg oral gavage once daily, or PTH 80 mcg/kg/d IP, 40 mg/kg): improved kidney function
fibrosis marker gene expression ([1]; whole kidney RT-qPCR, SK-124 40 mg/kg oral, or PTH 80 mcg/kg/d IP): reduced fibrosis marker gene expression
conserved genes induced with injury and reduced by SK-124 [2]: 419 genes
conserved genes suppressed by injury and restored by SK-124 [2]: 373 genes
patterns of dysregulated gene expression in CKD ([3]; scatterplot and heat map, SK-124 vs vehicle): conversely regulated; also recorded: reversed
injury markers (Col3a1, Vim, Serpine1) [3, 5]: suppressed
markers of intact proximal epithelial cells (Lrp2, Atpla1, Hnf4a) / epithelial cell integrity [3, 5]: preserved expression
epithelial cell integrity ([4]; adenine-induced CKD): preserves epithelial cell integrity
Atpla1 expression [4, 6]: restored expression
Lrp2 expression [4, 6]: restored expression
Slc34a1 expression [4, 6]: restored expression
